Data published in ChEMBL document CHEMBL3988442, “University of Dundee, Small-Polar-MMV Screening Library” (2021).
Several values for one entry are separate records, joined by “and”; a condition that tells them apart may be missing. Identical values can stand only once.

Tests used:
[1] = microbe, parasite or virus in culture; details: Mycobacterium tuberculosis, 96 h, read-out: pIC50 (converted)
[2] = In vitro enzyme assay to detect hydrolysis of chlorophenol red-beta-D-[…] directly proportional to the number of Toxoplasma stably expressing beta-galactosidase; type: functional, organism-based, Toxoplasma gondii; details: for IC50: Toxoplasma gondii
[3] = microbe, parasite or virus in culture; details: Mycobacterium tuberculosis, 72 h, read-out: pIC50 (converted)
Plasmodium falciparum = assay: Calibr Malaria Delayed Death Assay SOP; type: functional, organism-based; details: for IC50: Plasmodium falciparum

Row | Structure (SMILES) | IC50 [1] [µM] | IC50 [2] [µM] | IC50 [3] [µM] | pIC50 (Plasmodium falciparum) | IC50 (Plasmodium falciparum) [µM] | pIC50 [2]
1 | CCn1cc(CN(C)S(=O)(=O)c2ccc(C(C)C)cc2)cn1 | 48.5 | > 50.1 | 46.8 |  |  | 
2 | O=C(CN1CCCC(c2ccn[nH]2)C1)Nc1nc2c(s1)CCC2 (centres undefined) |  | 0.766 |  | 6.713 | 0.216 | 
3 | c1ccc(COCCc2noc(C3CNC3)n2)cc1 | 270 | 24.9 | 222 |  |  | 
4 | CCCc1nc(NCCc2ccccc2)c2c(n1)c(C)nn2CC | 38.5 | 9.84 | 48.8 |  |  | 4.958
5 | CCCNc1cc(-c2c[nH]nc2C2CCN(C(=O)C3CCC3)C2)ccn1 (centres undefined) |  | 0.368 |  | 6.573 | 0.237 | 
6 | Cc1cc(C)n(-c2nc(NCCCO)c3c4c(sc3n2)CCCC4)n1 | 41.8 |  | 45.4 |  |  | 5.989 and 5.533
7 | CC(C)CNc1cc(-c2c[nH]nc2C2CCN(C(=O)C3CC3)C2)ccn1 (centres undefined) |  | 0.274 |  | 6.615 | 0.233 | 
8 | Cc1ccc(F)cc1S(=O)(=O)N1C[C@H](C2CC2)[C@@H](N)C1 | > 501 | > 50.1 | 259 |  |  | 
9 | NCCc1ccc(-n2cccn2)cc1 | 191 | > 50.1 | 188 |  |  | 
10 | NCCC(=O)N1CCCC(CCc2ccc(F)cc2)C1 (centres undefined) | 479 | > 50.1 | 204 |  |  | 
11 | COc1ccc(CCN)c(OC)c1 | 91.2 | > 50.1 | 46.8 |  |  | 
12 | NC(CC1CCCC1)c1ccc(Oc2ccccc2)cc1 (centres undefined) | 24.2 | 5.29 | 27.4 |  |  | 
13 | C1CCC(COCCc2noc(C3CNC3)n2)C1 | > 501 | 19.5 | 96.5 |  |  | 
14 | C=C/C=c1\c(=C/C)oc2c(NCc3ccccc3)nc(C)nc12 | 12.1 | 37.2 | 20.6 |  |  | 
15 | NCCC1CSc2ccccc2O1 (centres undefined) | 170 | > 50.1 | 129 |  |  | 
16 | CCC(C#N)NC(=O)c1cnc(OC(C)C)c(Cl)c1 (centres undefined) | 291 | > 50.1 | 131 |  |  | 
17 | Cc1cc(NC(=O)C(C)C)n(-c2nc(C)c(C)c(=O)[nH]2)n1 | 9.46 | 1.51 | 4.11 |  |  | 5.713
18 | O=C(c1cc(C2CC2)n[nH]1)N1CCC2(CCCO2)CC1 | > 501 | > 50.1 | > 501 |  |  | 
19 | Brc1ccc(N2CCNCC2)nc1 | > 501 | > 50.1 | 185 |  |  | 
20 | CCOC(=O)C1(Cc2ccccc2-c2ccccc2OC)CCNCC1.Cl |  | 13.2 |  | 6.391 | 0.369 | 
21 | Fc1cccc(-c2cccc(N3CCC(NC4CCCOC4)CC3)c2)c1 (centres undefined) | 30.8 | 26.2 | 27.4 |  |  | 
22 | NCC(O)c1ccc(-c2ccccc2)cc1 (centres undefined) | 97.4 | > 25.1 | 104 |  |  | 
23 | O=C(CN1CCC=C(F)C1)Nc1cccc(F)c1 | 278 | > 50.1 | 300 |  |  | 
24 | Cc1cc(C)c(C#N)c(N2C[C@H](C3CC3)[C@@H](N)C2)n1 | > 501 | > 50.1 | 247 |  |  | 

Row | Structure (SMILES) | IC50 [1] [µM] | IC50 [2] [µM] | IC50 [3] [µM] | pIC50 (Plasmodium falciparum) | IC50 (Plasmodium falciparum) [µM] | pIC50 [2]
25 | Cc1cc(C(=O)N2CCN(c3nc4c(C(C)C)cccc4s3)CC2)on1 | 38.5 | > 25.1 | 21.3 |  |  | 
26 | CC(C)c1ccc(C(CN)N2CCc3sccc3C2)cc1 (centres undefined) | 24.8 | 13.4 | 20.4 |  |  | 5.076
27 | COCCNc1nnc(SCc2ccc(Br)cn2)s1 | > 501 | > 50.1 | 276 |  |  | 
28 | Nc1nc(N)nc(CN2CCCC2c2cccs2)n1 (centres undefined) | > 501 | > 50.1 | 171 |  |  | 
29 | Cc1ccc(C(CCNCCCN(C)C)C2CCOC(C)(C)C2)cc1.O=C(O)C(=O)O (centres undefined) |  | 5.38 |  | 6.22 | 0.659 | 5.301
30 | CCn1nc(C)c2nc(C(C)C)nc(NCC(C)C)c21 | 49.2 | 25.4 | 47.1 |  |  | 
31 | Nc1nnc(SCc2ccc(Cl)s2)[nH]1 | 313 | > 50.1 | 307 |  |  | 
32 | Cc1cccc(OCCc2noc(C3CNC3)n2)c1 | 163 | 8.49 | 89.2 |  |  | 
33 | CC(C)(N)CN1CCN(c2cccc(Cl)c2)CC1 | 474 | > 50.1 | 98.6 |  |  | 
34 | CCc1nccn1CCNC1CCN(c2nc3ccc(Cl)cc3s2)CC1 | 18.4 | 8.99 | 34 |  |  | 
35 | Cn1nc2n(c1=O)CCN(Cc1ccc(Br)s1)CC2 | > 501 | > 50.1 | 139 |  |  | 
36 | Brc1ccc(NCc2ccc(Cn3ccnc3)cc2)nc1 | 4.63 | 29.6 | 3.73 |  |  | 
37 | CCCS(=O)(=O)NCC(O)C1CCCC1 (centres undefined) | 268 | > 50.1 | 294 |  |  | 
38 | C=C/C=c1\c(=C/C)oc2c(NCc3ccccc3)nc(CC)nc12 | 19.1 | 37.5 | 22 |  |  | 
39 | COc1ncccc1-c1csc(NCCSC)n1 | 284 | > 50.1 | 101 |  |  | 
40 | CCOC(=O)C(O)c1cc(Br)c2c(c1)OCO2 (centres undefined) | > 501 | > 50.1 | 223 |  |  | 
41 | Nc1n[nH]c(SCc2ccc3c(c2)OCCO3)n1 | > 501 | > 50.1 | > 501 |  |  | 
42 | Clc1cccc(-c2cccc(N3CCC(NC4CCOCC4)CC3)c2)c1 | 34.9 | 14.4 | 29.7 |  |  | 
43 | OCCNCCNCc1ccc(-c2cccc(Cl)c2)o1 | 253 | > 25.1 | 84.4 |  |  | 
44 | CCCn1c(N2CCCC(C)C2)nc2c(C)nn(C)c2c1=O (centres undefined) | > 50.1 | 22.2 |  |  |  | 4.506
45 | OCc1cc2ccccc2nc1N1CCSCC1 | 282 | > 50.1 | 238 |  |  | 
46 | NCc1cccc(-c2ccccn2)n1 | 97.6 | 12.4 | 109 |  |  | 
47 | CC(C)Sc1ccccc1NS(=O)(=O)N(C)C | 252 | > 50.1 | 173 |  |  | 
48 | c1ccc(C2CNCCCO2)cc1 (centres undefined) | 306 | > 50.1 | 166 |  |  | 

Row | Structure (SMILES) | IC50 [1] [µM] | IC50 [2] [µM] | IC50 [3] [µM] | pIC50 (Plasmodium falciparum) | IC50 (Plasmodium falciparum) [µM] | pIC50 [2]
49 | COc1cccc(N2CCNCC2C)c1 (centres undefined) | > 501 | > 50.1 | > 501 |  |  | 
50 | C(Cc1noc(C2CNC2)n1)OCC1CC1 | 352 | 24.8 | 136 |  |  | 
51 | NCCNC(=O)c1ccc(-c2ccc(Cl)cc2)s1 | 103 | > 25.1 | 67.3 |  |  | 
52 | COc1ccc(S(=O)(=O)N(C)C)cc1NCC1CC1 | > 501 | > 50.1 | 299 |  |  | 
53 | Cc1cnc(NC(=O)c2cccc(CN(C)Cc3ncccc3C)c2)s1 |  | 13.6 |  |  |  | 
54 | Cc1cc(C)n(CC2CCNCC2)n1 |  | > 50.1 |  |  |  | 
55 | O=C(CC(F)(F)F)NC1CCN(CC2CC2)C1 (centres undefined) |  | > 50.1 |  |  |  | 
56 | CC(=O)Nc1ncc(S(=O)(=O)Nc2ccccc2)s1 |  | > 50.1 |  |  |  | 
57 | CC1CCN(CCNC(=O)Nc2ncnn2C)CC1 |  | > 50.1 |  |  |  | 
58 | CCn1nc(C)c2nc(C(C)C)nc(NCC(C)O)c21 (centres undefined) |  | > 50.1 |  |  |  | 
59 | CCC(=O)NC1CCCc2nc(N(C)C)ncc21 (centres undefined) |  | > 50.1 |  |  |  | 
60 | CN(C)c1cc(CNC(=O)c2nccnc2N)ccn1 |  | > 50.1 |  |  |  | 
61 | CN(C)C(=O)Nc1cc(F)cc(F)c1 | 30.6 | 2.1 | 30.2 |  |  | 
62 | CCCNC(=O)CCn1nc(C)cc1C |  | > 50.1 |  |  |  | 
63 | CCc1cccc(OCC(=O)N2CCCC(n3cncn3)C2)c1 (centres undefined) |  | 28.2 |  |  |  | 
64 | CCn1cc(NC(=O)c2cc(C)nc(N3CCOCC3)n2)cn1 |  | > 25.1 |  |  |  | 
65 | CCOCCNC(=O)c1cccnc1Sc1cc(OC)ccc1OC |  | > 50.1 |  |  |  | 
66 | Cc1c(S(=O)(=O)NC2CC2)cc2c(C)cc(=O)n3c2c1CCC3 |  | 48.5 |  |  |  | 
67 | COC(C)CCC(=O)NCc1cn2ccccc2n1 (centres undefined) |  | > 50.1 |  |  |  | 
68 | NC(=O)CCc1ccc(Cl)s1 | 160 | > 50.1 | > 501 |  |  | 
69 | O=C(c1cnsn1)N1CCN(C2CC2)C(=O)C1 |  | > 50.1 |  |  |  | 
70 | Cc1ccc(Cl)cc1NC(=O)CN1CCNC(=O)C1 |  | > 50.1 |  |  |  | 
71 | CCc1cc(N2CCC(NCCc3ccccc3F)CC2)nc(C)n1 |  | 8.65 |  |  |  | 4.968
72 | CCNc1ncc2c(n1)CN(c1ccc(CC)cc1)C2=O | > 50.1 | > 50.1 |  |  |  | 

Row | Structure (SMILES) | IC50 [1] [µM] | IC50 [2] [µM] | IC50 [3] [µM] | pIC50 (Plasmodium falciparum) | IC50 (Plasmodium falciparum) [µM] | pIC50 [2]
73 | O=C([C@@H]1CCO[C@@H]2CCN(CC3CC3)C[C@H]21)N1CCCCO1 |  | > 50.1 |  |  |  | 
74 | CCn1ccc(-c2cc(NCCCOc3ccccc3C)nc(C)n2)n1 |  | 11.7 |  |  |  | 
75 | NC(=O)N1CCCCCC1C1CCNCC1 (centres undefined) |  | > 50.1 |  |  |  | 
76 | Cc1cccc(CN2CCc3nnc(CN4CCCCC4)n3CC2)n1 |  | > 50.1 |  |  |  | 
77 | Cn1nnc2c1C(COCC1CC1)CN(C(=O)Cc1cccs1)C2 (centres undefined) |  | 30.9 |  |  |  | 4.541
78 | Cn1cc(CN2CCn3cc(Cn4cccn4)nc3C2)cn1 |  | > 50.1 |  |  |  | 
79 | CNc1ncc(C(=O)N2CCCC(Cc3ccccc3OC)C2)s1 (centres undefined) |  | 45.9 |  |  |  | 
80 | CC(C)n1ccc(CN2C(=O)CC(C)(C)C2=O)n1 |  | > 50.1 |  |  |  | 
81 | Cc1c(NC(=O)c2ccc(Br)cc2)c(C(=O)N(C)C)nn1C |  | > 50.1 |  |  |  | 
82 | O=C([C@@H]1CCO[C@@H]2CCN(Cc3ccc(F)cc3)C[C@H]21)N1CCCCO1 |  | > 50.1 |  |  |  | 
83 | c1cnc(-c2nn3c(CN4CCOCC4)nnc3s2)cn1 |  | > 50.1 |  |  |  | 
84 | CNc1cc(-c2cccc(OC)c2)[nH]n1 |  | > 50.1 |  |  |  | 
85 | COC(=O)c1[nH]cc(-c2ccccc2)c1N | 172 | > 50.1 | 196 |  |  | 
86 | COCCNC(=O)Nc1cc(Cl)ccc1OC |  | > 50.1 |  |  |  | 
87 | CCNS(=O)(=O)c1csc(C(=O)Nc2cc(C)on2)c1 |  | > 50.1 |  |  |  | 
88 | c1cc(-c2nn3c(CN4CCOCC4)nnc3s2)ccn1 |  | 44.7 |  |  |  | < 4.3
89 | O=C1c2ccc(F)cc2C(=O)N1Cc1nnsc1Cl |  | > 50.1 |  |  |  | 
90 | CC(C)NC(=O)C1CN(C(=O)CCc2ccccc2)CC12CCOCC2 (centres undefined) |  | > 50.1 |  |  |  | 
91 | CC(=O)N1CC2(CCCN(Cc3ccc(Cl)cc3)C2)Cc2ccccc21 (centres undefined) |  | 10.4 |  |  |  | 4.953
92 | Cc1nn(C)c2c(=O)n(C(C)C)c(NCCc3ccccc3)nc12 |  | 36.1 |  |  |  | 
93 | CC1CCN(C(=O)CSc2nncs2)CC1 | 23.8 | > 50.1 | 22.7 |  |  | 
